Here are results for one substance from PMC6514771, “A Stapled Peptide Mimic of the Pseudosubstrate Inhibitor PKI Inhibits Protein Kinase A” (Molecules, 2019).

Test [1] has as its target human PKA catalytic isoform Cα (PKA-Cα) (Homo sapiens, UniProt P17612). The test can be described thus: Fluorescence polarization (FP) direct binding. As to conditions: FAM-labeled negative control peptide; three independent measurements with three protein preparations. Background: Polarisation of emitted light reports the rotation of a fluorescent probe.
In test [2] the target is human PKA catalytic isoform Cβ1 (PKA-Cβ1) (Homo sapiens, UniProt P22694). As to the kind of experiment: Fluorescence polarization (FP) direct binding. The following applies: FAM-labeled negative control peptide; three independent measurements with three protein preparations.

Consider “βA-TTY*DFI*SGRTGFFNAIHD (sidechain bridge or staple) [negative control peptide]”, for which the “binding to PKA-Ca (FP)” value in test [1] is reported as “No binding”. In test [2], the “binding to PKA-Cb (FP)” value is “No binding”.
